Key:
Settings in all cases: main component drawn
S. aureus Newman [1] = test: fitness (endpoint OD595 vs no drug) (fraction); higher = more growth
Procedure, shortened: (§1)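 Volumes were 30 µl per well, or 55 µl for S. pneumoniae, in 384-well plates inoculated at OD595 0.01. Media were TSB, LB Lennox or CY at 37 °C, and OD595 was read every 30 min for 14 h with first-reading background subtraction. Fitness is the ratio of optical density at stationary-phase entry to the robust mean of no-drug controls. That ratio is capped at 1.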

B. subtilis 168 [2] = test: as above
Procedure, shortened: as §1

S. aureus DSM 20231 = test: Bliss interaction score (quartile over a dose matrix) (fitness difference); higher = more antagonism (negative = synergy)
Procedure, shortened: (§2)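 Growth was read as OD595 when cultures entered stationary phase, and each value was divided by the plate's robust no-drug mean and capped at 1. This normalised ratio is the fitness value, and fitness for each single drug came from the combination data. The Bliss score subtracts the expected fitness, taken as the product, from the observed fitness and is given as quartiles across technical, biological and donor/recipient replicates.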

S. aureus Newman [3] = test: as above
Procedure, shortened: as §2

B. subtilis 168 [4] = test: as above
Procedure, shortened: as §2

S. pneumoniae D39V = test: as above
Procedure, shortened: as §2
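Wherever Bliss interaction score (quartile over a dose matrix) is given: first quartile when negative (synergy) and third quartile when positive (antagonism).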

CC[C@H](C)[C@H](N)C1=N[C@H](C(=O)N[C@@H](CC(C)C)C(=O)N[C@H](CCC(=O)O)C(=O)N[C@H](C(=O)N[C@H]2CCCCNC(=O)[C@H](CC(N)=O)NC(=O)[C@@H](CC(=O)O)NC(=O)[C@H](Cc3cnc[nH]3)NC(=O)[C@@H](Cc3ccccc3)NC(=O)[C@H]([C@@H](C)CC)NC(=O)[C@@H](CCCN)NC2=O)[C@@H](C)CC)CS1 [Bacitracin] + C[C@@H]1O[C@@H]1P(=O)(O)O [Fosfomycin]
fitness
Settings | first compound 18.75 µg/mL | first compound 37.5 µg/mL | first compound 75 µg/mL | first compound 150 µg/mL
B. subtilis 168 [2], partner 1.562 µg/mL | – | 0.697 | 0.662 | 0.607
B. subtilis 168 [2], partner 3.124 µg/mL | – | 0.61 | 0.594 | 0.488
B. subtilis 168 [2], partner 6.248 µg/mL | – | 0.501 | 0.51 | 0.427
S. aureus Newman [1], partner 0.781 µg/mL | 0.507 | 0.0984 | 0.0911 | –
S. aureus Newman [1], partner 1.562 µg/mL | 0.471 | – | 0.0362 | –
S. aureus Newman [1], partner 3.124 µg/mL | 0.174 | 0.0141 | 0.0222 | –

Settings | Bliss interaction score
B. subtilis 168 [4] | 0.0941
S. aureus DSM 20231 | 0.109
S. aureus Newman [3] | 0.102
S. pneumoniae D39V | -0.0469

CC[C@H](C)[C@H](N)C1=N[C@H](C(=O)N[C@@H](CC(C)C)C(=O)N[C@H](CCC(=O)O)C(=O)N[C@H](C(=O)N[C@H]2CCCCNC(=O)[C@H](CC(N)=O)NC(=O)[C@@H](CC(=O)O)NC(=O)[C@H](Cc3cnc[nH]3)NC(=O)[C@@H](Cc3ccccc3)NC(=O)[C@H]([C@@H](C)CC)NC(=O)[C@@H](CCCN)NC2=O)[C@@H](C)CC)CS1 [Bacitracin] + O=C(O)c1cn(C2CC2)c2cc(N3CCNCC3)c(F)cc2c1=O [Ciprofloxacin]
fitness
Settings | first compound 18.75 µg/mL | first compound 37.5 µg/mL | first compound 75 µg/mL | first compound 150 µg/mL
B. subtilis 168 [2], partner 0.0098 µg/mL | – | 0.88 | 0.889 | 0.897
B. subtilis 168 [2], partner 0.0195 µg/mL | – | 0.718 | 0.659 | 0.559
B. subtilis 168 [2], partner 0.039 µg/mL | – | 0.201 | 0.0773 | 0.0355
S. aureus Newman [1], partner 0.0375 µg/mL | 0.524 | 0.199 | 0.0079 | –
S. aureus Newman [1], partner 0.075 µg/mL | – | 0.0916 | 0.013 | –
S. aureus Newman [1], partner 0.15 µg/mL | 0.0536 | 0.0155 | 0.0083 | –

Settings | Bliss interaction score
B. subtilis 168 [4] | -0.0665
S. aureus DSM 20231 | -0.0438
S. aureus Newman [3] | -0.0418
S. pneumoniae D39V | -0.13

CC[C@H](C)[C@H](N)C1=N[C@H](C(=O)N[C@@H](CC(C)C)C(=O)N[C@H](CCC(=O)O)C(=O)N[C@H](C(=O)N[C@H]2CCCCNC(=O)[C@H](CC(N)=O)NC(=O)[C@@H](CC(=O)O)NC(=O)[C@H](Cc3cnc[nH]3)NC(=O)[C@@H](Cc3ccccc3)NC(=O)[C@H]([C@@H](C)CC)NC(=O)[C@@H](CCCN)NC2=O)[C@@H](C)CC)CS1 [Bacitracin] + COc1ccc(C[C@H](N)C(=O)N[C@H]2[C@@H](O)[C@H](n3cnc4c(N(C)C)ncnc43)O[C@@H]2CO)cc1 [Puromycin]
fitness
Settings | first compound 18.75 µg/mL | first compound 37.5 µg/mL | first compound 75 µg/mL | first compound 150 µg/mL
B. subtilis 168 [2], partner 0.39 µg/mL | – | 0.901 | 0.875 | 0.793
B. subtilis 168 [2], partner 0.78 µg/mL | – | 0.959 | 0.958 | –
B. subtilis 168 [2], partner 1.56 µg/mL | – | 0.903 | 0.881 | –
S. aureus Newman [1], partner 0.39 µg/mL | 0.693 | – | 0.0319 | –
S. aureus Newman [1], partner 0.78 µg/mL | 0.687 | 0.197 | 0.0272 | –
S. aureus Newman [1], partner 1.56 µg/mL | 0.685 | 0.0934 | 0.0307 | –

Settings | Bliss interaction score
B. subtilis 168 [4] | 0.0815
S. aureus DSM 20231 | -0.0671
S. aureus Newman [3] | -0.0486
S. pneumoniae D39V | 0.048

CC[C@H](C)[C@H](N)C1=N[C@H](C(=O)N[C@@H](CC(C)C)C(=O)N[C@H](CCC(=O)O)C(=O)N[C@H](C(=O)N[C@H]2CCCCNC(=O)[C@H](CC(N)=O)NC(=O)[C@@H](CC(=O)O)NC(=O)[C@H](Cc3cnc[nH]3)NC(=O)[C@@H](Cc3ccccc3)NC(=O)[C@H]([C@@H](C)CC)NC(=O)[C@@H](CCCN)NC2=O)[C@@H](C)CC)CS1 [Bacitracin] + CCCCCCCCCC(=O)N[C@@H]1[C@H]([C@@H]([C@H](O[C@H]1OC2=C3C=C4C=C2OC5=C(C=C(C=C5)[C@H]([C@H]6C(=O)N[C@@H](C7=C(C(=CC(=C7)O)OC8[C@H]([C@H]([C@@H]([C@H](O8)CO)O)O)O)C9=C(C=CC(=C9)[C@H](C(=O)N6)NC(=O)[C@@H]4NC(=O)[C@@H]1C2=CC(=CC(=C2)OC2=C(C=CC(=C2)[C@H](C(=O)N[C@H](CC2=CC(=C(O3)C=C2)Cl)C(=O)N1)N)O)O)O)C(=O)O)O[C@H]1[C@@H]([C@H]([C@@H]([C@H](O1)CO)O)O)NC(=O)C)Cl)CO)O)O [Teicoplanin]
fitness, S. aureus Newman [1]
Settings | first compound 18.75 µg/mL | first compound 37.5 µg/mL | first compound 75 µg/mL
partner 0.1562 µg/mL | 0.777 | 0.249 | 0.0017
partner 0.3125 µg/mL | 0.77 | 0.202 | 0.0042
partner 0.625 µg/mL | 0.683 | 0.206 | 0

fitness, S. aureus Newman [1], one replicate
Settings | first compound 18.75 µg/mL | first compound 37.5 µg/mL | first compound 75 µg/mL
partner 0.62 µg/mL | 0.543 | 0.0346 | 0.0093
partner 1.24 µg/mL | 0.424 | 0.0167 | 0.0003
partner 2.48 µg/mL | 0.0859 | 0.0387 | 0.0349

Settings | Bliss interaction score
B. subtilis 168 [4] | -0.119
S. aureus DSM 20231 | -0.0716
S. aureus Newman [3] | 0.0565
S. pneumoniae D39V | -0.0678
